For assay [1], the target named is T1, P/Q-type channels (Cav 2.1) (Rattus norvegicus, UniProt P54282).
T1 construct: host or cells: tsA-201
Briefly: P/Q-type Ca2+ channel agonist activity, whole-cell perforated patch clamp in tsA-201 cells. The class given is cell-based. As to the method:
tsA201 cells expressing calcium channels. […] For subsequent evaluation of effects on N-, P/Q-, or L-type channels, tsA-201 cells were transiently transfected with Cav2.2, Cav2.1, or Cav1.3, in combination with Cavβ3 and […] (Addgene, Cambridge Mass.) using FuGENE 6 (Life Technologies, Grand Island, N.Y.). All cells were maintained in DMEM supplemented with 10% fetal bovine serum. For the stable cell line expressing N-type channels, 25 μg/mL zeocin, 5 μg/mL blasticidin, and 25 μg/mL hygromycin were added as selection agents.
Whole-cell patch clamp recordings of calcium current. […] Briefly, the pipette solution consisted of […] Cs2SO4, 60 mM CsCl, 1 mM MgCl2, 10 mM 4-(2-hydroxyethyl)-1-piperazineethanesulfonic acid (HEPES) at pH 7.4. […] Patch pipettes were fabricated from borosilicate glass and pulled to a resistance of about 1 MΩ. Before each experiment, a stock solution consisting of 3 mg amphotericin-B dissolved into 50 μL anhydrous DMSO was made. […] Capacitive currents and passive membrane responses to voltage commands were subtracted from the data. Currents were amplified by an Axopatch 200B amplifier, filtered at 5 KHz, and digitized at 10 KHz for subsequent analysis using pClamp software (Axon Instruments/Molecular Devices; Sunnyvale, Calif.). […] To measure effects on calcium channel tail currents, the tail current integral was measured before and after application of a derivative, with the integral of each trace being normalized to its peak. All experiments were carried out at room temperature (22° C.). […] All other salts and chemicals were obtained from Sigma-Aldrich chemical company (St. Louis, Mo.).
Capacitive currents and passive membrane responses to voltage commands were subtracted from the data. […] All experiments were carried out at room temperature (22° C.).
In general terms: The patch-clamp technique gives a direct electrical read-out from membranes.

In assay [2] the test system is LEMS passive transfer mouse NMJs. Briefly: Intracellular recordings at LEMS passive transfer mouse NMJs, ex vivo ETA nerve-muscle preparation (Example 3). As to the method:
LEMS passive transfer. To test GV-58 in a LEMS model NMJ, an established LEMS passive transfer mouse model was utilized. To perform the passive transfer of LEMS, mice were injected with the serum of patients diagnosed with LEMS. […] Each serum sample was tested for the presence of voltage-gated Ca^2+ channel antibodies using a Ca^2+ channel antibody radioimmune assay (Kronus RIA kit, Star, Id.). Control serum was obtained from the University of Pittsburgh Medical Center blood bank. […]; 25-32 g; Charles River Laboratories) were divided into two groups: one group that received LEMS serum, and a control group that received control serum.
Intracellular recordings at mouse NMJs. […] A thin upper arm muscle, the epitrochleoanconeus (ETA), was chosen for these recordings. […] […]. A train of 10 EPPs was also collected in each muscle fiber using an inter-stimulus interval of 20 msec. To analyze the data, both the amplitudes and the areas under the waveforms (integral) were determined after correcting each digitized point in each trace for non-linear summation. Data were collected and analyzed using an Axoclamp 900A and the pClamp 10 suite of programs (Molecular Devices, Sunnyvale, Calif.).
Statistical Analysis. […] For the dose-response analyses on Ca^2+ current, each concentration of the four different compounds was tested in 3-6 cells. […]. All EC50 and IC50 values and their respective errors were determined by performing 100 iterations of a logistic function curve fit.

Several values for one entry are separate records, joined by “and”; a condition that tells them apart may be missing. Equal values may be shown once. Read-outs that look alike come from different tables or passages of the source.

The source of these data is US9796714B2, “Calcium channel agonists” (University of Pittsburgh—Of the Commonwealth System of …, priority 2013, dated 2017).

T1 sequence (P54282 whole entry): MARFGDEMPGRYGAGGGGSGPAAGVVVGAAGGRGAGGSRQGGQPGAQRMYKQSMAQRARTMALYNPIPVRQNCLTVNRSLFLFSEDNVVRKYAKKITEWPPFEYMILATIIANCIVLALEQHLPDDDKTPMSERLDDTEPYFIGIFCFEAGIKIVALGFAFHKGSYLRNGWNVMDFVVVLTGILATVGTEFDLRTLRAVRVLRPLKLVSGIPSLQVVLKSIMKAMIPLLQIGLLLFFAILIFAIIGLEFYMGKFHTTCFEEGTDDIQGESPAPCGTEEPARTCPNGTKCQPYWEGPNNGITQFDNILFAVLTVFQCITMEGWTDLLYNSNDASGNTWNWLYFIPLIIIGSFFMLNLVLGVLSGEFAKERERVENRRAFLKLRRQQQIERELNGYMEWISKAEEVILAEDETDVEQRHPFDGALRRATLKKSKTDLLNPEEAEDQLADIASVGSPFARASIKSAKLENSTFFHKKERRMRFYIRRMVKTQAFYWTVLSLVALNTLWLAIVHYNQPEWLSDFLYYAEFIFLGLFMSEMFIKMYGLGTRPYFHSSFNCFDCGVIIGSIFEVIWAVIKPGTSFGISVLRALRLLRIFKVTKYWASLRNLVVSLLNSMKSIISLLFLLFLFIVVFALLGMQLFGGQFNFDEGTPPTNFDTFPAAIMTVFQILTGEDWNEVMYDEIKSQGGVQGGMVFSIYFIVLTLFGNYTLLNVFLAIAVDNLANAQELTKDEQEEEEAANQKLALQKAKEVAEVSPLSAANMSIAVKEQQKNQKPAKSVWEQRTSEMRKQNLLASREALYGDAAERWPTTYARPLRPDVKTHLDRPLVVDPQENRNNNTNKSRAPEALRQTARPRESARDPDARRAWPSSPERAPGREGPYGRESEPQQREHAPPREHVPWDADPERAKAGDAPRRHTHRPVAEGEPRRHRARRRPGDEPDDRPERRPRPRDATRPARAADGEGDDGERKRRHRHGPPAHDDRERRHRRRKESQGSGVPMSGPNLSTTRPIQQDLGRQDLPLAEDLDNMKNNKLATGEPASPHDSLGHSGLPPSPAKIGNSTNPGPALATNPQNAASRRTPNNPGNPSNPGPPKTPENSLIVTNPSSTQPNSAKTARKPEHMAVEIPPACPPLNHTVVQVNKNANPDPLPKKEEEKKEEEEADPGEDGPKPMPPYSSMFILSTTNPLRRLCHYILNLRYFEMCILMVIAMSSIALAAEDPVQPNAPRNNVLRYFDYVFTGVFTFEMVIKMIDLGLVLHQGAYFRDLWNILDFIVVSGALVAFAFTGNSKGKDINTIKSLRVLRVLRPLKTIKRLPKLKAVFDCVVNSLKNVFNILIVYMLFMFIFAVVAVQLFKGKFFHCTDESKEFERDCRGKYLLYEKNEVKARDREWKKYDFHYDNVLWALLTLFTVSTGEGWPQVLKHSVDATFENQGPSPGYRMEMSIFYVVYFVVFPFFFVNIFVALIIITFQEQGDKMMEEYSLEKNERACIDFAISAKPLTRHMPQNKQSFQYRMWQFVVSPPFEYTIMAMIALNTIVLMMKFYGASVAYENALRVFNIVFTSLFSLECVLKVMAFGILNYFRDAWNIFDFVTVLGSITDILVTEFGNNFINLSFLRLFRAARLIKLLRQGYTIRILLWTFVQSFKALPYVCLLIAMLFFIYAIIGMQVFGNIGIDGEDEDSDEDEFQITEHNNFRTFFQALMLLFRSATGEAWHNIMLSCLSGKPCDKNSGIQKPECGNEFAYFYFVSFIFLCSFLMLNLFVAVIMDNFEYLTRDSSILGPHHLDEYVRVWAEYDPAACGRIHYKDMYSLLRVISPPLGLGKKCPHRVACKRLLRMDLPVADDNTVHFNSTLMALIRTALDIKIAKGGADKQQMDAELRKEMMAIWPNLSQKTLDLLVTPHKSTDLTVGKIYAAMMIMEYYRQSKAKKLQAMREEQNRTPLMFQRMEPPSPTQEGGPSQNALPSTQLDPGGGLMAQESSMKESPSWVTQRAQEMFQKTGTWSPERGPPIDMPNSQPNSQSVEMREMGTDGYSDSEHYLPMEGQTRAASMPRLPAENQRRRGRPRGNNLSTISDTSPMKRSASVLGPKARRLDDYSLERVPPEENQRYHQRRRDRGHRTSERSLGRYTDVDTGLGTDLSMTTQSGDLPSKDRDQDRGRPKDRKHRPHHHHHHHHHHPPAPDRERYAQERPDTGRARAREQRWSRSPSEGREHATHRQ

As for `CCCn1cnc2c(NCc3ccc(C)s3)nc(N[C@H](CC)CO)nc21` [Compound 13x, (2R)-2-[(6-{[(5-Methylthiophen-2-yl)methyl]amino}-9-propyl-9H-purin-2-yl)amino]butan-1-ol], the “increase of the tail current integral compared to control” value in assay [1] (P/Q-type channels) is roughly 33 fold. The EC50 in assay [1] (b265, read-out: agonist effects on P/Q-type calcium channels EC50) came to 9.9 µM. Also, in assay [1] (calcium channel agonist, Cav 2.1, read-out: P/Q-type EC50/IC50 affinities), the EC50 is 8.8 µM and 8.81 µM. The EC50 in assay [1] (read-out: 95% confidence interval for a fit (EC50) to P/Q channels data) lay in the range of 6.7 to 14.5 µM. Besides, the “increase of the strength of neuromuscular transmission” value in assay [2] is recorded as “about 50%”. Besides, in assay [2] (50 μM), the “EPP 90% to 10% decay time” value was determined as 6.79 ± 0.11 ms; the “EPP full width at half maximum (FWHM)” value amounted to 3.90 ± 0.07 ms; the “final EPP in 50 Hz train of 10 stimuli, normalized to the first EPP” value is “about 94%”; the mEPP frequency was 10.45 ± 0.64 s⁻¹. In assay [2] (50 μM vs vehicle), the “increase of quantal content when measuring area” value is on record as roughly 92% and the “increase of quantal content when measuring peak” value was roughly 62%. The “mean change in mEPP amplitude” value in assay [2] (50 μM, relative to vehicle) worked out at 1.00±0.02. In addition, the EPP amplitude in assay [2] (aBC2 serum NMJs, 30-minute incubation in 50 μM) is given as 19.44±0.98 mV.
